Series [1] can be described thus: Agonist activity at rabbit GPR38 expressed in COS-7 cells. It is filed as cell-based. Particulars: Oryctolagus cuniculus.
Series [2] concerns the target T1, CYP3A4 (Homo sapiens, UniProt P08684). The series can be described thus: Inhibition of CYP3A4 in human liver microsomes assessed as remaining activity. In kind it is ADME, Microsome. Details: concentration or dose not given beside the values.
For series [3], the target named is T2, Motilin receptor (Homo sapiens, UniProt O43193). As to the kind of experiment: Agonist activity at human GPR38 expressed in COS-7 cells. In kind it is functional, cell-based.
A short description of series [4]: Ex vivo agonist activity at GPR38 in rabbit duodenum muscle tissue assessed as intestinal contractile activity. In kind it is tissue-based, Oryctolagus cuniculus.
Series [5] is described as follows: Lipophilicity, logD of the compound at pH 7.4. Particulars: buffer.
Series [6] deals with T2, Motilin receptor. As to the kind of experiment: Potency index, ratio of GSK962040 EC50 to test compound EC50 for human GPR38 expressed in COS-7 cells. It is filed as functional, cell-based.
Another series addresses CYP2C9 (Homo sapiens, UniProt P11712). The series can be described thus: Inhibition of CYP2C9 (unknown origin) at 10 uM. It is filed as ADME.
For a further series, the species on record is Oryctolagus cuniculus. As to the kind of experiment: Potency index, ratio of GSK962040 EC50 to test compound EC50 for Ex vivo agonist activity at GPR38 in rabbit duodenum muscle tissue. In kind it is tissue-based.
Series [7] is described as follows: Effective permeability of the compound at pH 5 by PAMPA assay. It is filed as ADME. Particulars: read-out: Peff.
Series [8] is described as follows: Protein binding in human. In kind it is ADME. The following applies: read-out: PB (converted).
Series [9] is described as follows: Effective permeability of the compound at pH 7.4 by PAMPA assay. In kind it is ADME. The following applies: read-out: Peff.
The target in series [10] is T1, CYP3A4. As to the kind of experiment: Inhibition of CYP3A4 (unknown origin) at 10 uM. It is filed as ADME.
A further series has as its target CYP2D6 (Homo sapiens, UniProt P10635). As to the kind of experiment: Inhibition of CYP2D6 (unknown origin) at 10 uM. It is filed as ADME.
In a further series the target is T3, CYP1A2 (Homo sapiens, UniProt P05177).
T3 sequence (P05177 whole entry): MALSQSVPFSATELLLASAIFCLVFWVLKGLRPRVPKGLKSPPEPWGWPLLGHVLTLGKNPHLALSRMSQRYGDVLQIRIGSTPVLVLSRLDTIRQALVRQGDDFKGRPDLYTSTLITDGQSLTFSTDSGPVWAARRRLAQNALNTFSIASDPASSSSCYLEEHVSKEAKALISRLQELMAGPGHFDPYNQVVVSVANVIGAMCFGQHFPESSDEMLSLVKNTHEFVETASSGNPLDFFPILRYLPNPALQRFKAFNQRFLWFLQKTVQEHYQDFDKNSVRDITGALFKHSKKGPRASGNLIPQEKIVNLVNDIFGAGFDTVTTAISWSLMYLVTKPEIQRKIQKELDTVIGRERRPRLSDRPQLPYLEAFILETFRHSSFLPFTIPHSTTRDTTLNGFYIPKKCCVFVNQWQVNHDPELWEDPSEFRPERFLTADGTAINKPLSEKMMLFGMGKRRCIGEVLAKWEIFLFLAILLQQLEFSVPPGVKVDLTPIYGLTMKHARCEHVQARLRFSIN
The series can be described thus: Inhibition of CYP1A2 (unknown origin) at 10 uM. It is filed as ADME.

Series [11] can be described thus: Protein binding in rabbit. It is filed as ADME, Oryctolagus cuniculus. Particulars: read-out: PB (converted).

Data on 22 molecules can be found in ChEMBL document CHEMBL5143563, “Discovery of DS-3801b, a non-macrolide GPR38 agonist with N-methylanilide structure” (Bioorg Med Chem Lett, 2022).

T2 sequence (O43193 whole entry): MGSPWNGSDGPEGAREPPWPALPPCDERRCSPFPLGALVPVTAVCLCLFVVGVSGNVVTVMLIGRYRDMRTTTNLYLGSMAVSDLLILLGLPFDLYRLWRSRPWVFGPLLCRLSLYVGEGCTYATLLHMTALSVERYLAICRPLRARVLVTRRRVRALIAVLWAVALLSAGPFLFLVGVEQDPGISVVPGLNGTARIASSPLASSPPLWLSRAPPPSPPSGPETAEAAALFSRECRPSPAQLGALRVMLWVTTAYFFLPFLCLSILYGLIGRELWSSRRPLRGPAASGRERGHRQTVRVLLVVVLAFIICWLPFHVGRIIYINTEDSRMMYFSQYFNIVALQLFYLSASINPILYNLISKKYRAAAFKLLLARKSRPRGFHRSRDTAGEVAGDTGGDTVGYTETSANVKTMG
T1 sequence (P08684 whole entry): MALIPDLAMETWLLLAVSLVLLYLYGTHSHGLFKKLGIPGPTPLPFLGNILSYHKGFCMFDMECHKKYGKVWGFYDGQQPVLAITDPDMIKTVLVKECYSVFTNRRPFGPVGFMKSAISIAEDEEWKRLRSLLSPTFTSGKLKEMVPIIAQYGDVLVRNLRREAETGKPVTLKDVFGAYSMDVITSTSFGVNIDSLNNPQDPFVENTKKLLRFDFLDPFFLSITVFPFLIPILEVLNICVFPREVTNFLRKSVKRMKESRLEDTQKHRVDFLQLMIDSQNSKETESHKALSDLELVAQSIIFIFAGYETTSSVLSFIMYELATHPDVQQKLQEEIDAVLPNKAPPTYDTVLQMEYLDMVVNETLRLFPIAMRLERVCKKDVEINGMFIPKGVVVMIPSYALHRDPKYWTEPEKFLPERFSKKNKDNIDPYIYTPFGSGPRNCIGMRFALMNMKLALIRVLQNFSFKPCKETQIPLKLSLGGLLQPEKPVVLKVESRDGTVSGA
CYP2D6, sequence (P10635 whole entry): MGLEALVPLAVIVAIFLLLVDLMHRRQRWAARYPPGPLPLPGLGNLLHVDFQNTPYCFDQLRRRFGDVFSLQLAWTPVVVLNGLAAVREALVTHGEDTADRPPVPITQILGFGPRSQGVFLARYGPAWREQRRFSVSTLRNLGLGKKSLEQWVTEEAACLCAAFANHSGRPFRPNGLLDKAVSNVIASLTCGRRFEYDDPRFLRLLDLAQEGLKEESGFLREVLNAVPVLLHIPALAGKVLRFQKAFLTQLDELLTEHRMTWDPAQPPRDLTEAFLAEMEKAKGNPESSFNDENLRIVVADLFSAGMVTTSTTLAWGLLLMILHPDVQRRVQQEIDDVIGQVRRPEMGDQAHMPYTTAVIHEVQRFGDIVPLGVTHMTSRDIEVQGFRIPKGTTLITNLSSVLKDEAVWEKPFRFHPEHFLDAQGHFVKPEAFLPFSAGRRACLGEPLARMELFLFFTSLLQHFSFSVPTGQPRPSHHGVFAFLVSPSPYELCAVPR
CYP2C9, sequence (P11712 whole entry): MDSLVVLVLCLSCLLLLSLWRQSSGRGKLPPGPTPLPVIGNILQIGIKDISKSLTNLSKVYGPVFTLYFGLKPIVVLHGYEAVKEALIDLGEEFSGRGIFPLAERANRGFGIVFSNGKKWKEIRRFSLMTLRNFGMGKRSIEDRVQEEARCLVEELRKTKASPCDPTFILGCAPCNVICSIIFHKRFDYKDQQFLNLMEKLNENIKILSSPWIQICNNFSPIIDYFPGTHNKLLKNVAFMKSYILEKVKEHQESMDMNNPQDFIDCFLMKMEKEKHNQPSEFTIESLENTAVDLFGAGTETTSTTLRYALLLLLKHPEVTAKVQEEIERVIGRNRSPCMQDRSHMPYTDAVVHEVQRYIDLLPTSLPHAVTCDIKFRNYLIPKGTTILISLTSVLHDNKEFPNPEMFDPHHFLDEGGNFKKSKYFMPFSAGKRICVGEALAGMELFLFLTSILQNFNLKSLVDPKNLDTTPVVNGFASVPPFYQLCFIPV

As for `Cc1cc(N(C)C(=O)[C@H]2CC[C@H](Oc3ccc(F)cc3)CC2)ccc1CN1CCNCC1`, the 50% effective concentration (EC50) in series [1] stood at 1.3 nM; at Motilin receptor [3], 46 nM. Also, the activity on CYP3A4 [2] was found to be 82%.

Take `CC[C@H](C)[C@H](NC(=O)[C@@H]1CCCN1C(=O)[C@@H](NC(=O)[C@@H](N)Cc1ccccc1)C(C)C)C(=O)N[C@@H](Cc1ccccc1)C(=O)N[C@H](C(=O)N[C@@H](Cc1ccc(O)cc1)C(=O)NCC(=O)N[C@@H](CCC(=O)O)C(=O)N[C@@H](CC(C)C)C(=O)N[C@@H](CCC(N)=O)C(=O)N[C@@H](CCCNC(=N)N)C(=O)N[C@@H](CCSC)C(=O)N[C@@H](CCC(N)=O)C(=O)N[C@@H](CCC(=O)O)C(=O)N[C@@H](CCCCN)C(=O)N[C@@H](CCC(=O)O)C(=O)N[C@@H](CCCNC(=N)N)C(=O)N[C@@H](CC(N)=O)C(=O)N[C@@H](CCCCN)C(=O)NCC(=O)N[C@@H](CCC(N)=O)C(=O)O)[C@@H](C)O`: the 50% effective concentration (EC50) in series [1] came to 0.16 nM; in series [4], 0.23 nM; at Motilin receptor [3], 0.97 nM.

With `Cc1cc(N(C)C(=O)[C@H]2CC[C@H](Oc3ccc(Cl)c(CO)c3)CC2)ccc1CN1CCN[C@@H](C)C1`, the values for the EC50 (in series [1]; at Motilin receptor [3]) were 0.13 nM and 1.8 nM, respectively. At CYP3A4 [2], the activity was found to be 56%.

Take `Cc1cc(N(C)C(=O)[C@H]2CC[C@H](Oc3cccc(CC(=O)NC(C)C)c3)CC2)ccc1CN1CCN[C@@H](C)C1`: the EC50 was determined as 0.26 nM in [1] and 1.6 nM at Motilin receptor [3]. In series [5], this molecule came in with a logD of 1.8. In addition, the activity at CYP3A4 [2] was 68%.

Regarding `Cc1cc(N(C)C(=O)[C@H]2CC[C@H](Oc3cc(CO)ccc3C)CC2)ccc1CN1CCN[C@@H](C)C1`, the values for the EC50 (in series [1]; on Motilin receptor [3]) were 1 nM and 5.6 nM, respectively. For the same molecule, the activity at CYP3A4 [2] was determined as 54%.

For the molecule `Cc1cc(N(C)C(=O)[C@H]2CC[C@H](Oc3cccc(CC(C)(C)O)c3)CC2)ccc1CN1CCN[C@@H](C)C1`, the EC50 was determined as 1.1 nM in series [1] and 4.3 nM at Motilin receptor [3]. In series [5], this molecule came in with a logD of 2. Further, the activity at CYP3A4 [2] amounted to 50%.

In the case of `C[C@H]1CN(Cc2ccc(N(C)C(=O)[C@H]3CC[C@H](Oc4ccc(F)cc4)CC3)cc2)CCN1`, the values for the EC50 (in series [1]; in series [4]; on Motilin receptor [3]) were 2.6 nM, 28 nM and 55 nM, respectively. Moreover, at CYP3A4 [2], the activity was 44%.

With `C[C@@H]1CN(Cc2ccc(-c3cccnc3C(=O)N3CCC(Cc4ccc(F)cc4)CC3)cc2)C[C@H](C)N1`, the concentration giving a half-maximal response (EC50) amounted to 3.8 nM in series [1] and 51 nM on Motilin receptor [3]. In addition, the Ratio EC50 on Motilin receptor [6] is 20.

For `C[C@H]1CN(Cc2ccc(NC(=O)[C@H]3CC[C@H](Oc4ccc(F)cc4)CC3)cc2)CCN1`, the EC50 (in [1]; at Motilin receptor [3]) was above 10000 nM in each case.

Regarding `Cc1cc(N(C)C(=O)[C@H]2CC[C@H](Oc3ccc(F)c(CO)c3)CC2)ccc1CN1CCN[C@@H](C)C1`, the values for the EC50 (in series [1]; on Motilin receptor [3]) were 0.62 nM and 7.5 nM, respectively. Also, in series [5], the logD was 1.6. Besides, the activity on CYP3A4 [2] is 54%.

`C[C@H]1CN(Cc2ccc(-c3cccnc3N3CCC(Nc4cccc(F)c4)CC3)cc2)CCN1`: the EC50 was determined as 1.7 nM in series [1] and 18 nM on Motilin receptor [3].

Take `Cc1cc(N(C)C(=O)[C@H]2CC[C@H](Oc3cccc(CCO)c3)CC2)ccc1CN1CCN[C@@H](C)C1`: the EC50 in series [1] amounted to 0.51 nM; on Motilin receptor [3], 4.7 nM. For the same molecule, the logD in series [5] came out at 1.3. Besides, the activity at CYP3A4 [2] was determined as 60%.

For `Cc1cc(N(C)C(=O)[C@H]2CC[C@H](Oc3cccc(C(=O)O)c3)CC2)ccc1CN1CCN[C@@H](C)C1`, the concentration for a half-maximal effect (EC50) in series [1] was 1300 nM; on Motilin receptor [3], above 10000 nM. Moreover, the logD in [5] is -0.4. The activity at CYP3A4 [2] was 101%.

For the molecule `Cc1cc(N(C)C(=O)[C@H]2CC[C@H](Oc3ccc(F)cn3)CC2)ccc1CN1CCN[C@@H](C)C1`, the EC50 worked out at 0.26 nM in series [1] and 4.6 nM at Motilin receptor [3]. The molecule also returned a pH-dependent lipophilicity (logD) in series [5] of 1.9. Further, the activity on CYP3A4 [2] was 47%.

For the molecule `CC[C@H]1CN(Cc2ccc(N(C)C(=O)[C@H]3CC[C@H](Oc4ccnc(C#N)c4)CC3)cc2C)CCN1`, the figures for the EC50 (in [1]; in series [4]; at Motilin receptor [3]) were 1.2 nM, 4.8 nM and 11 nM, respectively. Also, the logD in series [5] came to 1. The activity at CYP3A4 [2] turned out to be 68%.

As for `CCOCc1cccc(N[C@H]2CC[C@H](C(=O)N(C)c3ccc(CN4CCN[C@@H](C)C4)c(C)c3)CC2)c1`, the logD in series [5] came out at 2.5. For the same molecule, the activity at CYP3A4 [2] was 61%. The EC50 on Motilin receptor [3] was 2.6 nM.

With `Cc1cc(N(C)C(=O)[C@H]2CC[C@H](Oc3cccc(CO)c3)CC2)ccc1CN1CCN[C@@H](C)C1`, the EC50 in series [1] amounted to 1.3 nM; in series [4], 7.3 nM; at Motilin receptor [3], 5.3 nM. The logD in series [5] is 1.3. Besides, the activity on CYP3A4 [2] was 74%. Further, the inhibition at 10 µM at CYP2C9 is 5.3%; at CYP3A4 [10], 3.1%; on CYP2D6 it was 8.8%; at CYP1A2 it was 13%. The Ratio EC50 in the series filed under Oryctolagus cuniculus stood at 11. Also, the results for the Papp in series [7] and in series [9] were 1.5 ×10⁻⁶ cm/s and 48 ×10⁻⁶ cm/s, respectively. Besides, the fraction unbound is 0.228 in [8] and 0.335 in series [11].

Turning to `Cc1cc(CN2CCN[C@@H](C)C2)ccc1N(C)C(=O)[C@H]1CC[C@H](Oc2ccc(F)cc2)CC1`, at CYP3A4 [2], the activity came out at 40%. The molecule further displayed an EC50 at Motilin receptor [3] of 240 nM.

For the molecule `Cc1cc(N(C)C(=O)[C@H]2CC[C@H](Oc3ccc(F)cc3)CC2)ccc1CN1CCN[C@@H](C)C1`, the EC50 in series [1] worked out at 0.21 nM; at Motilin receptor [3], 2.1 nM. Also, the logD in series [5] was 2.5. Besides, the activity at CYP3A4 [2] is 32%.

With `C[C@H]1CN(Cc2ccc(CC(=O)N3CCC(Nc4cccc(F)c4)CC3)cc2)CCN1` [CAMICINAL], the EC50 is 42 nM in [1], 82.6 nM in series [4] and 970 nM on Motilin receptor [3].

Take `CC[C@H]1CN(Cc2ccc(N(C)C(=O)[C@H]3CC[C@H](Oc4ccc(F)cc4)CC3)cc2C)CCN1`: the activity on CYP3A4 [2] is 29%. Besides, on Motilin receptor [3], a half-maximal response (EC50) required 350 nM.

Take `C[C@H]1CN(Cc2ccc(N(C)C(=O)[C@H]3CC[C@H](Oc4ccc(F)cc4)CC3)cc2Cl)CCN1`: the EC50 in series [1] came to 0.18 nM; on Motilin receptor [3], 2 nM. The activity on CYP3A4 [2] turned out to be 23%.
